Experimental data: patent US20240092799A1, “MNK INHIBITORS” (Hepagene Therapeutics (HK) Limited, priority 2020, published 2024)

Target: MNK2 (Homo sapiens (Human), UniProt Q9HBH9)
Test: MNK Biochemical Enzymatic Assay (ADP-Glo), MNK2 binding assay
Procedure, shortened: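 Human MNK1 or MNK2 was preincubated with a 10-point, 1:3 serial dilution of compound for 15 min at 25 °C. Substrate was then added and the reaction ran 60 min at 25 °C. ADP formed was read by ADP-Glo luminescence, and IC50 came from non-linear regression.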

Sequence of MNK2 (Q9HBH9 whole entry): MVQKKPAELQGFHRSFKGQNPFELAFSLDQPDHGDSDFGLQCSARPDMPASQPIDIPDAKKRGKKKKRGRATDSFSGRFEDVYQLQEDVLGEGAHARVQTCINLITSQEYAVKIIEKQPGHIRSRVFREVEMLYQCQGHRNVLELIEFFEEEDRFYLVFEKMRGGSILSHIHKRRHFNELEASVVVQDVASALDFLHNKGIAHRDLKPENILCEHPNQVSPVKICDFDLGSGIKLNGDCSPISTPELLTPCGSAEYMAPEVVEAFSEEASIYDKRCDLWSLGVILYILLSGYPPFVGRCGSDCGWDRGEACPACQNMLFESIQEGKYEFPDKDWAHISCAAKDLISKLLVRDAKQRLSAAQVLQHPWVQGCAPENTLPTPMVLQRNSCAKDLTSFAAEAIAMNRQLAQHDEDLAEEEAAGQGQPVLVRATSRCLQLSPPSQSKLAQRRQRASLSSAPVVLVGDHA

SMILES	IC50 [nM]
Nc1cc(Nc2cc3n(n2)C2(CCCCC2)NC3=O)ncn1 [Compound XI, 2′-((6-Aminopyrimidin-4-yl)amino)spiro[cyclohexane-1,6′-imidazo[1,5-b]pyrazol]-4′(5′H)-one]	> 1000
C[C@@H]1CN(C(=O)C2CCc3c(sc4ncnc(Nc5cc6c(s5)C(=O)NC65CCCCC5)c34)C2)CCN1C (stereo partly drawn) [Compound XXV-A, 2′-((7-((R)-3,4-Dimethylpiperazine-1-carbonyl)-5,6,7,8-tetrahydrobenzo[4,5]thieno[2,3-d]pyrimidin-4-yl)amino)spiro[cyclohexane-1,4′-thieno[2,3-c]pyrrol]-6′(5′H)-one]	10 to 100
O=C1NC2(CCCCC2)c2cc(Nc3cc(N4CCOCC4)ncn3)sc21 [Compound XXIII-K, 2′-((6-Morpholinopyrimidin-4-yl)amino)spiro[cyclohexane-1,4′-thieno[2,3-c]pyrrol]-6′(5′H)-one]	> 1000
O=C1NC2(CCCCC2)c2cc(Nc3ccncn3)sc21 [Compound X-A, 2′-(pyrimidin-4-ylamino)spiro[cyclohexane-1,4′-thieno[2,3-c]pyrrol]-6′(5′H)-one]	10 to 100
Cc1cc(Nc2ncnc3c2CCN3)[n+]([O-])c2c1C(=O)NC21CCCCC1 [Compound XXIX-AB, 2′-((6,7-dihydro-5H-pyrrolo[2,3-d]pyrimidin-4-yl)amino)-4′-methyl-5′-oxo-5′,6′-dihydrospiro[cyclohexane-1,7′-pyrrolo[3,4-b]pyridine] 1′-oxide]	10 to 100
CN(C)CCNc1cc(Nc2cc3c(s2)C(=O)NC32CCCCC2)ncn1 [Compound XXIII-A, 2′-((6-((2-(Dimethylamino)ethyl)amino)pyrimidin-4-yl)amino)spiro [cyclohexane-1,4′-thieno[2,3-c]pyrrol]-6′(5′H)-one]	100 to 1000
O=C1NC2(CCCCC2)c2cc(Nc3cc(N4CCCCC4)ncn3)sc21 [Compound XXIII-E, 2′-((6-(Piperidin-1-yl)pyrimidin-4-yl)amino)spiro[cyclohexane-1,4′-thieno[2,3-c]pyrrol]-6′(5′H)-one]	> 1000
O=C1NC2(CCCCC2)c2cc(Nc3cc(Nc4ccncc4)ncn3)sc21 [Compound XXIII-O, 2′-((6-(pyridin-4-ylamino)pyrimidin-4-yl)amino)spiro[cyclohexane-1,4′-thieno[2,3-c]pyrrol]-6′(5′H)-one]	10 to 100
Nc1cc(Nc2cc3c(s2)C(=O)NC32CCCCC2)ncn1 [Compound X, 2′-((6-Aminopyrimidin-4-yl)amino)spiro[cyclohexane-1,4′-thieno[2,3-c]pyrrol]-6′(5′H)-one]	10 to 100
O=C1NC2(CCCCC2)c2cc(Nc3cc(NCc4cccs4)ncn3)sc21 [Compound XXIV, 2′-((6-((Thiophen-2-ylmethyl)amino)pyrimidin-4-yl)amino)spiro[cyclohexane-1,4′-thieno[2,3-c]pyrrol]-6′(5′H)-one]	10 to 100
O=C1NC2(CCCCC2)c2cc(Nc3cc(Nc4ccccc4F)ncn3)sc21 [Compound XXIV-E, 2′-((6-((2-fluorophenyl)amino)pyrimidin-4-yl)amino)spiro[cyclohexane-1,4′-thieno[2,3-c]pyrrol]-6′(5′H)-one]	10 to 100
O=C1NC2(CCCCC2)c2cc(Nc3cc(N[C@H]4CCC[C@@H]4O)ncn3)sc21 [Compound XXIII-X, 2′-((6-(((1S,2S)-2-hydroxycyclopentyl)amino)pyrimidin-4-yl)amino)spiro[cyclohexane-1,4′-thieno[2,3-c]pyrrol]-6′(5′H)-one]	10 to 100
Cc1c(NC(=O)C2CC2)ncnc1Nc1cc2c(s1)C(=O)NC21CCCCC1 [Compound XX-C, N-(5-Methyl-6-((6′-oxo-5′,6′-dihydrospiro[cyclohexane-1,4′-thieno[2,3-c]pyrrol]-2′-yl)amino)pyrimidin-4-yl)cyclopropanecarboxamide]	100 to 1000
O=C1NC2(CCCCC2)c2cc(Nc3cc(Nc4ccccc4)ncn3)sc21 [Compound XXIII-B, 2′-((6-(Phenylamino)pyrimidin-4-yl)amino)spiro[cyclohexane-1,4′-thieno[2,3-c]pyrrol]-6′(5′H)-one]	10 to 100
O=C1NC2(CCCCC2)c2nc(Nc3cc(N[C@H]4CCCOC4)ncn3)sc21 [Compound XXVIII-D, (S)-2′-((6-((tetrahydro-2H-pyran-3-yl)amino)pyrimidin-4-yl)amino)spiro[cyclohexane-1,4′-pyrrolo[3,4-d]thiazol]-6′(5′H)-one]	10 to 100
CNc1cc(Nc2cc3c(s2)C(=O)NC32CCCCC2)ncn1 [Compound XXIII, 2′-((6-(Methylamino)pyrimidin-4-yl)amino)spiro[cyclohexane-1,4′-thieno[2,3-c]pyrrol]-6′(5′H)-one]	10 to 100

Results, then the compound that gave them:

IC50 [nM]	SMILES
10 to 100	Cc1cccnc1Nc1cc(Nc2cc(C)c3c([n+]2[O-])C2(CCCCC2)NC3=O)ncn1 [Compound XXIX-AZ, 4′-methyl-2′-((6-((3-methylpyridin-2-yl)amino)pyrimidin-4-yl)amino)-5′-oxo-5′,6′-dihydrospiro[cyclohexane-1,7′-pyrrolo[3,4-b]pyridine] 1′-oxide]
0.1 to 10	Cc1cc(Nc2cc(Nc3ccc(C4=CCOCC4)cn3)ncn2)[n+]([O-])c2c1C(=O)NC21CCCCC1 [Compound XXIX-AAS, 2′-((6-((5-(3,6-dihydro-2H-pyran-4-yl)pyridin-2-yl)amino)pyrimidin-4-yl)amino)-4′-methyl-5′-oxo-5′,6′-dihydrospiro[cyclohexane-1,7′-pyrrolo[3,4-b]pyridine] 1′-oxide]
10 to 100	Cc1cc(Nc2cc(NC(=O)N(C)C)ncn2)[n+]([O-])c2c1C(=O)NC21CCCCC1 [Compound XXIX-U, 2′-((6-(3,3-dimethylureido)pyrimidin-4-yl)amino)-4′-methyl-5′-oxo-5′,6′-dihydrospiro[cyclohexane-1,7′-pyrrolo[3,4-b]pyridine] 1′-oxide]
10 to 100	Cc1cc(Nc2cc(N[C@@H]3CCOC3)ncn2)[n+]([O-])c2c1C(=O)NC21CCCCC1 [Compound XXIX-AX, (R)-4′-methyl-5′-oxo-2′-((6-((tetrahydrofuran-3-yl)amino)pyrimidin-4-yl)amino)-5′,6′-dihydrospiro[cyclohexane-1,7′-pyrrolo[3,4-b]pyridine] 1′-oxide]
100 to 1000	Cc1cc(Nc2cc(NC3=NC(C)(C)CO3)ncn2)[n+]([O-])c2c1C(=O)NC21CCCCC1 [Compound XXIX-M, 2′-((6-((4,4-dimethyl-4,5-dihydrooxazol-2-yl)amino)pyrimidin-4-yl)amino)-4′-methyl-5′-oxo-5′,6′-dihydrospiro[cyclohexane-1,7′-pyrrolo[3,4-b]pyridine] 1′-oxide]
10 to 100	Cc1cc(Nc2cc(NC3CCCC3)ncn2)[n+]([O-])c2c1C(=O)NC21CCCCC1 [Compound XXIX-L, 2′-((6-(cyclopentylamino)pyrimidin-4-yl)amino)-4′-methyl-5′-oxo-5′,6′-dihydrospiro[cyclohexane-1,7′-pyrrolo[3,4-b]pyridine] 1′-oxide]
10 to 100	Cc1cc(Nc2cc(Nc3ccccc3F)ncn2)[n+]([O-])c2c1C(=O)NC21CCCCC1 [Compound XXIX-AI, 2′-((6-((2-fluorophenyl)amino)pyrimidin-4-yl)amino)-4′-methyl-5′-oxo-5′,6′-dihydrospiro[cyclohexane-1,7′-pyrrolo[3,4-b]pyridine] 1′-oxide]
100 to 1000	Cc1cc(Nc2cc(NC3CCOCC3)ncn2)[n+]([O-])c2c1C(=O)NC21CCCCC1 [Compound XXIX-R, 4′-methyl-5′-oxo-2′-((6-((tetrahydro-2H-pyran-4-yl)amino)pyrimidin-4-yl)amino)-5′,6′-dihydrospiro[cyclohexane-1,7′-pyrrolo[3,4-b]pyridine] 1′-oxide]
10 to 100	Cc1cc(Nc2cc(Nc3ccncc3)ncn2)[n+]([O-])c2c1C(=O)NC21CCCCC1 [Compound XXIX-AK, 4′-methyl-5′-oxo-2′-{[6-(pyridin-4-ylamino)pyrimidin-4-yl]amino}-6′H-Spiro[cyclohexane-1,7′-pyrrolo[3,4-b]pyridin]-1′-ium-1′-olate]
10 to 100	Cc1cc(Nc2cc(N[C@H]3CC[C@@H](O)C3)ncn2)[n+]([O-])c2c1C(=O)NC21CCCCC1 (relative stereo) [Compound XXIX-Y, 2′-((6-((cis-3-hydroxycyclopentyl)amino)pyrimidin-4-yl)amino)-4′-methyl-5′-oxo-5′,6′-dihydrospiro[cyclohexane-1,7′-pyrrolo[3,4-b]pyridine] 1′-oxide]
10 to 100	Cc1cc(Nc2cc(N[C@H]3C[C@H](O)C3)ncn2)[n+]([O-])c2c1C(=O)NC21CCCCC1 [Compound XXIX-T, trans-2′-((6-(((1r,3r)-3-hydroxycyclobutyl)amino)pyrimidin-4-yl)amino)-4′-methyl-5′-oxo-5′,6′-dihydrospiro[cyclohexane-1,7′-pyrrolo[3,4-b]pyridine] 1′-oxide]
100 to 1000	Cc1cc(Nc2cc(N[C@@H]3CCC[C@@H]3O)ncn2)[n+]([O-])c2c1C(=O)NC21CCCCC1 [Compound XXIX-W, 2′-((6-(((1R,2S)-2-hydroxycyclopentyl)amino)pyrimidin-4-yl)amino)-4′-methyl-5′-oxo-5′,6′-dihydrospiro[cyclohexane-1,7′-pyrrolo[3,4-b]pyridine] 1′-oxide]
10 to 100	CC(=O)N1CC(Nc2cc(Nc3cc(C)c4c([n+]3[O-])C3(CCCCC3)NC4=O)ncn2)C1 [Compound XXIX-AC, 2′-((6-((1-acetylazetidin-3-yl)amino)pyrimidin-4-yl)amino)-4′-methyl-5′-oxo-5′,6′-dihydrospiro[cyclohexane-1,7′-pyrrolo[3,4-b]pyridine] 1′-oxide]
0.1 to 10	Cc1cc(Nc2cc(NC(=O)C3CCCC3)ncn2)[n+]([O-])c2c1C(=O)NC21CCCCC1 [Compound XXIX-G, 2′-((6-(cyclopentanecarboxamido)pyrimidin-4-yl)amino)-4′-methyl-5′-oxo-5′,6′-dihydrospiro[cyclohexane-1,7′-pyrrolo[3,4-b]pyridine] 1′-oxide]
10 to 100	Cc1cc(Nc2cc(NCC3CCCO3)ncn2)[n+]([O-])c2c1C(=O)NC21CCCCC1 (stereo not shown) [Compound XXIX-P, 4′-methyl-5′-oxo-2′-((6-(((tetrahydrofuran-2-yl)methyl)amino)pyrimidin-4-yl)amino)-5′,6′-dihydrospiro[cyclohexane-1,7′-pyrrolo[3,4-b]pyridine] 1′-oxide]
